From ChEMBL document CHEMBL1146249, “Antiviral 2,5-disubstituted imidazo[4,5-c]pyridines: further optimization of anti-hepatitis C virus activity” (Bioorg Med Chem Lett, 2007)

What was measured:
Hepatitis C virus = assay: Antiviral activity against HCV in Huh 5-2 cells; assay type: functional, organism-based, Hepacivirus hominis
[1] = Cytotoxicity against Huh 5-2 cells; assay type: cell-based; details: human
[2] = Selectivity index, ratio of CC50 for MDBK cells to EC50 for BVDV; assay type: functional
[3] = Selectivity index, ratio of CC50 for Huh 5-2 cells to EC50 for HCV; assay type: functional
[4] = Cytotoxicity against MDBK cells; assay type: cell-based, Bos taurus; details: cattle
[5] = system: Bovine viral diarrhea virus 1; assay: Antiviral activity against BVDV in MDBK cells; assay type: functional, organism-based; details: Bovine viral diarrhea virus isolates and strains

Fc1ccccc1-c1nc2ccn(CCOc3ccccc3)cc-2n1
EC50 (Hepatitis C virus): 48 µM | CC50 [1]: 96 µM | Ratio CC50/EC50 [2]: >371 | Ratio CC50/EC50 [3]: 2 | CC50 [4]: > 104 µM | EC50 [5]: 0.28 µM

Fc1cccc(-c2nc3ccn(Cc4ccc(OC(F)(F)F)cc4)cc-3n2)c1F
EC50 (Hepatitis C virus): 0.2 µM | CC50 [1]: 81 µM | Ratio CC50/EC50 [2]: >500 | Ratio CC50/EC50 [3]: 405 | CC50 [4]: > 100 µM | EC50 [5]: 0.2 µM
